Assay: xn = mol fraction of the nth substance listed
Conditions: 101 kPa, Liquid

Clc1ccccc1 [chlorobenzene] + CC(C)(C)O
mass density [kg/m3]
Conditions	303.15 K	308.15 K	313.15 K	318.15 K	323.15 K
x2 = 0	1095.64	1090.23	1084.82	1079.42	1073.97
x2 = 0.0514	1078.9	1073.42	1067.94	1062.44	1056.94
x2 = 0.1001	1063.67	1058.13	1052.58	1047.01	1041.43
x2 = 0.1498	1048.32	1042.74	1037.14	1031.52	1025.89
x2 = 0.199	1033.1	1027.51	1021.89	1016.24	1010.56
x2 = 0.2505	1017.18	1011.59	1005.96	1000.3	994.615
x2 = 0.3	1001.8	996.225	990.603	984.94	979.276
x2 = 0.351	985.908	980.337	974.721	969.053	963.346
x2 = 0.3707	979.707	974.152	968.545	962.885	957.187
x2 = 0.3997	970.62	965.075	959.477	953.823	948.132
x2 = 0.45	954.724	949.206	943.631	937.997	932.311
x2 = 0.5	938.79	933.303	927.755	922.142	916.464
x2 = 0.5499	922.845	917.39	911.872	906.286	900.633
x2 = 0.6003	906.668	901.248	895.76	890.201	884.578
x2 = 0.6499	890.559	885.172	879.716	874.189	868.592
x2 = 0.7002	874.261	868.904	863.477	857.976	852.408
x2 = 0.7482	858.49	853.167	847.772	842.3	836.757
x2 = 0.7998	841.567	836.267	830.896	825.45	819.931
x2 = 0.8498	825.04	819.768	814.423	809	803.512
x2 = 0.9004	808.338	803.082	797.754	792.35	786.87

Clc1ccccc1 [chlorobenzene] + CCC(C)O
mass density [kg/m3]
Conditions	288.15 K	293.15 K	298.15 K	303.15 K	308.15 K	313.15 K
x2 = 0	1111.81	1106.43	1101.04	1095.64	1090.23	1084.82
x2 = 0.0496	1097.45	1092.02	1086.59	1081.16	1075.72	1070.28
x2 = 0.1003	1083.13	1077.7	1072.25	1066.79	1061.32	1055.83
x2 = 0.1501	1069.16	1063.74	1058.31	1052.85	1047.37	1041.88
x2 = 0.2	1055.05	1049.66	1044.24	1038.8	1033.33	1027.86
x2 = 0.2502	1040.78	1035.43	1030.05	1024.63	1019.19	1013.73
x2 = 0.3007	1026.39	1021.07	1015.73	1010.35	1004.94	999.501
x2 = 0.3497	1012.26	1006.99	1001.69	996.346	990.966	985.56
x2 = 0.3999	997.723	992.501	987.245	981.952	976.612	971.251
x2 = 0.4499	983.091	977.922	972.717	967.468	962.174	956.834
x2 = 0.5	968.364	963.258	958.109	952.917	947.675	942.399
x2 = 0.5498	953.525	948.484	943.398	938.263	933.079	927.858
x2 = 0.5999	938.418	933.448	928.431	923.362	918.237	913.072
x2 = 0.6499	923.235	918.341	913.397	908.397	903.335	898.213
x2 = 0.7	907.848	903.04	898.18	893.259	888.276	883.238
x2 = 0.75	892.266	887.557	882.791	877.959	873.061	868.109
x2 = 0.8	876.537	871.933	867.265	862.532	857.722	852.839
x2 = 0.8498	860.576	856.092	851.542	846.918	842.221	837.46
x2 = 0.8997	844.324	839.965	835.544	831.044	826.464	821.827
x2 = 0.9502	827.634	823.427	819.146	814.788	810.337	805.821

Reference: the NIST ThermoML archive (doi:10.1016/j.fluid.2007.09.028)
